We go through 17 molecules from patent US9938322B2, “β-hairpin peptidomimetics” (priority 2013, dated 2018).

Where a SMILES comes first, the peptide text is derived from it. [ ]: non-standard residue; d: D form. Ala(thiazol-2-yl) = N[C@@H](Cc1nccs1)C(=O)O; Oic = O=C(O)[C@@H]1C[C@@H]2CCCC[C@@H]2N1; Pro(3S-OH) = O=C(O)[C@H]1NCC[C@@H]1O; Dap(CONH2) = NC(=O)NC[C@H](N)C(=O)O; Cha = N[C@@H](CC1CCCCC1)C(=O)O; Tle = CC(C)(C)[C@H](N)C(=O)O; dDab = NCC[C@@H](N)C(=O)O; hSer = N[C@@H](CCO)C(=O)O; Orn = NCCC[C@H](N)C(=O)O; Dab = NCC[C@H](N)C(=O)O; Dap = NC[C@H](N)C(=O)O

For this data set, the system named is human red blood cells (hRBC). Nature of the data set: Hemolysis of human red blood cells. The data set is classed as cell-based. To be noted: red cells of human, 1 h, 100. The method, then:
Lyophilized peptides were weighed on a Microbalance (Mettler MT5) and dissolved in sterile water to a final concentration of 1 mg/ml. Stock solutions were kept at +4° C., light protected.
The peptides were tested for their hemolytic activity against human red blood cells (hRBC). Fresh hRBC were washed three times with phosphate buffered saline (PBS) and centrifuged for 10 min at 2000×g. Compounds (100 μg/ml) were incubated with 20% hRBC (v/v) for 1 h at 37° C. and shaking at 300 rpm. The final erythrocyte concentration was approximately 0.9×10^9 cells/ml. A value of 0% and 100% cell lyses, respectively, was determined by incubation of hRBC in the presence of PBS containing 0.001% acetic acid and 2.5% Triton X-100 in H2O, respectively. The samples were centrifuged, the supernatants were 8-fold diluted in PBS buffer and the optical densities (OD) were measured at 540 nm. The 100% lyses value (OD540H2O) gave an OD540 of approximately 0.5-1.0.
Percent hemolysis was calculated as follows: (OD540peptide/OD540H2O)×100%.
`C[C@@H]1NC(=O)[C@H](Cc2c[nH]c3ccccc23)NC(=O)[C@@H]2CCCN2C(=O)[C@H]2CCCN2C(=O)[C@H](CO)NC(=O)[C@H](Cc2nccs2)NC(=O)[C@H](C(C)(C)C)NC(=O)[C@H](CCN)NC(=O)[C@H](Cc2c[nH]c3ccccc23)NC(=O)[C@H](CCN)NC(=O)[C@@H](CCN)NC(=O)[C@H](CCCN)NC(=O)[C@H](CCN)NC(=O)[C@H](CC2CCCCC2)NC1=O` [compound 7] (cyclo(WA[Cha][Dab][Orn][dDab][Dab]W[Dab][Tle][Ala(thiazol-2-yl)]S[dP]P)): the “Hemolysis at 100 μg/ml” value was determined as 8%.

In the case of `CC(C)C[C@@H]1NC(=O)[C@@H]2CCCN2C(=O)[C@H]2CCCN2C(=O)[C@H](CO)NC(=O)[C@H](C)NC(=O)[C@H](Cc2c[nH]c3ccccc23)NC(=O)[C@H](CCN)NC(=O)[C@H](Cc2c[nH]c3ccccc23)NC(=O)[C@H](CCN)NC(=O)[C@@H](CCN)NC(=O)[C@H](CCCCN)NC(=O)[C@H](CCN)NC(=O)[C@H](Cc2ccc(O)cc2)NC(=O)[C@H](CO)NC1=O` [compound 108] (cyclo(LSY[Dab]K[dDab][Dab]W[Dab]WAS[dP]P)), the “Hemolysis at 100 μg/ml” value turned out to be 1%. As to `COC[C@@H]1NC(=O)[C@H](C(C)(C)C)NC(=O)[C@H](CCN)NC(=O)[C@H](Cc2c[nH]c3ccccc23)NC(=O)[C@H](CCN)NC(=O)[C@@H](CCN)NC(=O)[C@H](CCCN)NC(=O)[C@H](CCN)NC(=O)[C@H](CC2CCCCC2)NC(=O)[C@H](C)NC(=O)[C@H](Cc2c[nH]c3ccccc23)NC(=O)[C@@H]2C[C@@H]3CCCC[C@@H]3N2C(=O)[C@H]2CCCN2C(=O)[C@H](CO)NC1=O` [Ex. 54, cyclo(-Trp-Ala-Cha-Dab-Orn-^DDab-Dab-Trp-Dab-tBuGly-Ser(Me)-Ser-^DPro-Oic-)] (cyclo(A[Cha][Dab][Orn][dDab][Dab]W[Dab][Tle]S(Me)S[dP][Oic]W)), the “Hemolysis at 100 μg/ml” value is reported as 3%. The value for `CC(C)C[C@@H]1NC(=O)[C@H](C)NC(=O)[C@H](C(C)(C)C)NC(=O)[C@H](CCN)NC(=O)[C@H](Cc2c[nH]c3ccccc23)NC(=O)[C@H](CCN)NC(=O)[C@@H](CCN)NC(=O)[C@H](CCCN)NC(=O)[C@H](CCN)NC(=O)[C@H](Cc2ccc(O)cc2)NC(=O)[C@H](CO)NC(=O)[C@H]([C@@H](C)O)NC(=O)[C@@H]2CCCN2C(=O)[C@H]2CCCN2C1=O` [compound 161] (cyclo(TSY[Dab][Orn][dDab][Dab]W[Dab][Tle]AL[dP]P)) was 2%; that for `CC(C)C[C@@H]1NC(=O)[C@@H]2CCCN2C(=O)[C@H]2CCCN2C(=O)[C@H](CO)NC(=O)[C@H](C)NC(=O)[C@H](C(C)(C)C)NC(=O)[C@H](CCN)NC(=O)[C@H](Cc2c[nH]c3ccccc23)NC(=O)[C@H](CCN)NC(=O)[C@@H](CCN)NC(=O)[C@H](CCCN)NC(=O)[C@H](CCN)NC(=O)[C@H](Cc2c[nH]c3ccccc23)NC(=O)[C@H](CN)NC1=O` [compound 147] (cyclo(L[Dap]W[Dab][Orn][dDab][Dab]W[Dab][Tle]AS[dP]P)) was 0%; that for `CC(C)C[C@@H]1NC(=O)[C@@H]2CCCN2C(=O)[C@H]2CCCN2C(=O)[C@H](CO)NC(=O)[C@H](CO)NC(=O)[C@H](C(C)(C)C)NC(=O)[C@H](CCN)NC(=O)[C@H](Cc2c[nH]c3ccccc23)NC(=O)[C@H](CCN)NC(=O)[C@H](CCN)NC(=O)[C@H](CCCN)NC(=O)[C@H](CCN)NC(=O)[C@H](CC2CCCCC2)NC(=O)[C@H](CO)NC1=O` [compound 143] (cyclo(LS[Cha][Dab][Orn][Dab][Dab]W[Dab][Tle]SS[dP]P)) was 0%. On to `C[C@@H]1NC(=O)[C@H](C(C)(C)C)NC(=O)[C@H](CCN)NC(=O)[C@H](Cc2c[nH]c3ccccc23)NC(=O)[C@H](CCN)NC(=O)[C@@H](CCN)NC(=O)[C@H](CCCN)NC(=O)[C@H](CCN)NC(=O)[C@H](CC2CCCCC2)NC(=O)[C@H](CCO)NC(=O)[C@H](Cc2c[nH]c3ccccc23)NC(=O)[C@@H]2CCCN2C(=O)[C@H]2CCCN2C(=O)[C@H](CO)NC1=O` [compound 18] (cyclo(W[hSer][Cha][Dab][Orn][dDab][Dab]W[Dab][Tle]AS[dP]P)), for which the “Hemolysis at 100 μg/ml” value is given as 3%. As for `C[C@@H]1NC(=O)[C@H](Cc2c[nH]c3ccccc23)NC(=O)[C@@H]2CCCN2C(=O)[C@H]2CCCN2C(=O)[C@H](CO)NC(=O)[C@H](C)NC(=O)[C@H](C(C)(C)C)NC(=O)[C@H](CCN)NC(=O)[C@H](Cc2c[nH]c3ccccc23)NC(=O)[C@H](CCN)NC(=O)[C@@H](CCN)NC(=O)[C@H](CCCCN)NC(=O)[C@H](CCN)NC(=O)[C@H](Cc2ccc(O)cc2)NC1=O` [compound 78] (cyclo(WAY[Dab]K[dDab][Dab]W[Dab][Tle]AS[dP]P)), the “Hemolysis at 100 μg/ml” value came to 1%. Regarding `C[C@@H]1NC(=O)[C@H](C(C)(C)C)NC(=O)[C@H](CCN)NC(=O)[C@H](Cc2c[nH]c3ccccc23)NC(=O)[C@H](CCN)NC(=O)[C@@H](CCN)NC(=O)[C@H](CCCN)NC(=O)[C@H](CCN)NC(=O)[C@H](Cc2ccc(O)cc2)NC(=O)[C@H](CO)NC(=O)[C@H](Cc2ccc(O)cc2)NC(=O)[C@@H]2CCCN2C(=O)[C@H]2CCCN2C(=O)[C@H](CO)NC1=O` [compound 21] (cyclo(YSY[Dab][Orn][dDab][Dab]W[Dab][Tle]AS[dP]P)), the “Hemolysis at 100 μg/ml” value came out at 1%. As to `CC(C)C[C@@H]1NC(=O)[C@@H]2CCCN2C(=O)[C@H]2CCCN2C(=O)[C@H](CO)NC(=O)[C@H](CCN)NC(=O)[C@H](C(C)(C)C)NC(=O)[C@H](CCN)NC(=O)[C@H](Cc2c[nH]c3ccccc23)NC(=O)[C@H](CCN)NC(=O)[C@@H](CCN)NC(=O)[C@H](CCCN)NC(=O)[C@H](CCN)NC(=O)[C@H](Cc2ccc(O)cc2)NC(=O)CNC1=O` [compound 157] (cyclo(LGY[Dab][Orn][dDab][Dab]W[Dab][Tle][Dab]S[dP]P)), the “Hemolysis at 100 μg/ml” value was 1%. The value for `CC(C)C[C@@H]1NC(=O)[C@@H]2CCCN2C(=O)[C@H]2CCCN2C(=O)[C@H](CO)NC(=O)[C@H](C)NC(=O)[C@H](C(C)(C)C)NC(=O)[C@H](CCCCN)NC(=O)[C@H](Cc2c[nH]c3ccccc23)NC(=O)[C@H](CCN)NC(=O)[C@@H](CCN)NC(=O)[C@H](CCCN)NC(=O)[C@H](CCN)NC(=O)[C@H](Cc2ccc(O)cc2)NC(=O)[C@H](CO)NC1=O` [compound 100] (cyclo(LSY[Dab][Orn][dDab][Dab]WK[Tle]AS[dP]P)) was 1%; that for `CC(C)C[C@@H]1NC(=O)[C@@H]2CCCN2C(=O)[C@H]2CCCN2C(=O)[C@H](CO)NC(=O)[C@H](C)NC(=O)[C@H](C(C)(C)C)NC(=O)[C@H](CCN)NC(=O)[C@H](Cc2c[nH]c3ccccc23)NC(=O)[C@H](CCN)NC(=O)[C@H](CCN)NC(=O)[C@H](CCCN)NC(=O)[C@H](CCN)NC(=O)[C@H](Cc2ccc(O)cc2)NC(=O)[C@H](CO)NC1=O` [compound 24] (cyclo(LSY[Dab][Orn][Dab][Dab]W[Dab][Tle]AS[dP]P)) was 1%; that for `CC(C)C[C@@H]1NC(=O)[C@@H]2[C@@H](O)CCN2C(=O)[C@H]2CCCN2C(=O)[C@H](CO)NC(=O)[C@H](CNC(N)=O)NC(=O)[C@H](C(C)(C)C)NC(=O)[C@H](CCN)NC(=O)[C@H](Cc2c[nH]c3ccccc23)NC(=O)[C@H](CCN)NC(=O)[C@@H](CCN)NC(=O)[C@H](CCCN)NC(=O)[C@H](CCN)NC(=O)[C@H](CC2CCCCC2)NC(=O)[C@H](C)NC1=O` [compound 60] (cyclo(LA[Cha][Dab][Orn][dDab][Dab]W[Dab][Tle][Dap(CONH2)]S[dP][Pro(3S-OH)])) was 1%. `CC[C@H](C)[C@@H]1NC(=O)[C@@H]2CCCN2C(=O)[C@H]2CCCN2C(=O)[C@H](CO)NC(=O)[C@H](C)NC(=O)[C@H](C(C)(C)C)NC(=O)[C@H](CCN)NC(=O)[C@H](Cc2c[nH]c3ccccc23)NC(=O)[C@H](CCN)NC(=O)[C@@H](CCN)NC(=O)[C@H](CCCCN)NC(=O)[C@H](CCN)NC(=O)[C@H](Cc2ccc(O)cc2)NC(=O)[C@H](CO)NC1=O` [compound 82] (cyclo(ISY[Dab]K[dDab][Dab]W[Dab][Tle]AS[dP]P)): the “Hemolysis at 100 μg/ml” value was found to be 1%. Consider `CC(C)[C@@H]1NC(=O)[C@@H]2CCCN2C(=O)[C@H]2CCCN2C(=O)[C@H](CO)NC(=O)[C@H](C)NC(=O)[C@H](CC2CCCCC2)NC(=O)[C@H](CCN)NC(=O)[C@H](Cc2c[nH]c3ccccc23)NC(=O)[C@H](CCN)NC(=O)[C@@H](CCN)NC(=O)[C@H](CCCN)NC(=O)[C@H](CCN)NC(=O)[C@H](Cc2ccc(O)cc2)NC(=O)[C@H](CO)NC1=O` [compound 92] (cyclo(VSY[Dab][Orn][dDab][Dab]W[Dab][Cha]AS[dP]P)), for which the “Hemolysis at 100 μg/ml” value came out at 5%.

Turning to `CC(C)C[C@@H]1NC(=O)[C@@H]2CCCN2C(=O)[C@H]2CCCN2C(=O)[C@H](CO)NC(=O)[C@H](C)NC(=O)[C@H](C(C)(C)C)NC(=O)[C@H](CCN)NC(=O)[C@H](Cc2c[nH]c3ccccc23)NC(=O)[C@H](CCN)NC(=O)[C@@H](CCN)NC(=O)[C@H](CCCN)NC(=O)[C@H](CCN)NC(=O)[C@H](Cc2ccc(O)cc2)NC(=O)[C@H](CN)NC1=O` [compound 145] (cyclo(L[Dap]Y[Dab][Orn][dDab][Dab]W[Dab][Tle]AS[dP]P)), the “Hemolysis at 100 μg/ml” value amounted to 0%. The value for `CC(C)C[C@@H]1NC(=O)[C@@H]2CCCN2C(=O)[C@H]2CCCN2C(=O)[C@H]([C@@H](C)O)NC(=O)[C@H](CO)NC(=O)[C@H](C(C)(C)C)NC(=O)[C@H](CCN)NC(=O)[C@H](Cc2c[nH]c3ccccc23)NC(=O)[C@H](CCN)NC(=O)[C@@H](CCN)NC(=O)[C@H](CCCN)NC(=O)[C@H](CCN)NC(=O)[C@H](Cc2ccc(O)cc2)NC(=O)[C@H](C)NC1=O` [compound 131] (cyclo(LAY[Dab][Orn][dDab][Dab]W[Dab][Tle]ST[dP]P)) was 0.1%.
